Test results from ChEMBL document CHEMBL1201862, “PubChem BioAssay data set” (2004).
Calls of active or inactive are those of the source. For most assays here, no stated cut-off is given here; in the data, actives have a measured EC50 and inactives only a lower limit.

Tests used:
[1] = tested on: BJ; assay: cytotoxicity toward BJ-TERT fibroblasts, dose response, cell-based, RAS-independent, luminescence (AID 1933); assay type: functional; conditions: Homo sapiens
[2] = target: T1, Luciferin 4-monooxygenase (Photinus pyralis, UniProt P08659); assay: Counter Screen for Luciferase-based Assay Positives. [Related pubchem assays: 620, 618, 411 ]
[3] = tested on: BJ; assay: cells; assay type: functional, cell-based; conditions: Homo sapiens
[4] = target: T1, Luciferin 4-monooxygenase; assay: firefly luciferase enzyme inhibitors, dose response, biochemical, luminescence (AID 1891)
[5] = Luminescence Cell-Based Dose Confirmation HTS to Identify Inhibitors of Platelet Dense Granule Release. [Related pubchem assays: 1663 (Primary HTS), 1678 (Summary of Project)]; assay type: functional
[6] = tested on: HT-1080; assay: cytotoxicity in HT1080 fibrosarcoma cells, cell-based, fluorescence readout (AID 620); assay type: functional; conditions: Homo sapiens
[7] = tested on: BJ; assay: cytotoxicity toward BJ-TERT-LT-ST fibroblasts, dose response, cell-based, RAS-independent, luminescence (AID 1935); assay type: functional; conditions: Homo sapiens;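 further: BJ fibroblasts immortalized with TERT plus LT and ST oncogenes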
[8] = cytotoxicity toward DRD oncogenic fibroblasts, dose response, cell-based, non-viral oncogenic, luminescence (AID 1934); assay type: functional; conditions: Homo sapiens
[9] = cytotoxicity in HEK-293T cells, dose response, cytotoxicity control for TCR NF-kB inhibitor project, luminescence, T-cell screen hits (AID 489026); assay type: functional, cell-based;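 further: cells exposed to compound about 14 hours before the viability readout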
[10] = Shn3 3'UTR reporter inhibitors, dose response, cell-based, Clone20 osteoblasts, firefly luciferase, cherry-picked (AID 624132); assay type: functional;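 further: firefly luciferase luminescence from reporter carrying the Shn3 3'UTR in osteoblasts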
[11] = HepG2 cell cytotoxicity, dose response, cytotoxicity control for Shn3 inhibitor project, CellTiter-Glo, cherry-picked (AID 624134); assay type: functional, cell-based
[12] = inhibitors of intracellular T. cruzi replication, confirmation, NIH3T3 host cells, beta-gal luminescence (AID 2044); assay type: functional, cell-based;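 further: intracellular parasites grown in NIH/3T3 mouse fibroblasts as host cells; luminescent beta-galactosidase reporter signal from transgenic T. cruzi replicating inside host cells; inhibitors lower the luminescence signal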
[13] = cytotoxicity toward NIH3T3 fibroblasts, dose response, counter-screen, cell-based, ATP luminescence, mouse fibroblasts (AID 2010); assay type: functional;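 further: cells exposed to compound for about 90 hours before reading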
[14] = target: Voltage-dependent T-type calcium channel subunit alpha-1H (Homo sapiens, UniProt O95180); assay type: functional;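 further: channel activity triggered by adding a high calcium stimulation buffer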
[15] = A Cell Based Secondary Assay To Explore Cytotoxicity of Compounds that Sensitize Mycobacterium Tuberculosis to Beta-Lactam Antibiotics.; assay type: functional
[16] = growth suppression of PTEN-null colon cells, dose response, cell-based, HCT116 PTEN knockout (AID 1047); assay type: functional;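 further: HCT116 colon tumor cells with PTEN knocked out; cells exposed to compound for 60 hours before readout; potency for loss of cell viability measured by luminescence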
[17] = growth suppression of beta-catenin-knockout colon cells, dose response, cell-based, HCT116, human colon tumor (AID 1045); assay type: functional;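 further: HCT116 colon tumor cells with beta catenin knocked out; cells exposed to compound for 60 hours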
[18] = inhibitors of firefly luciferase expression or activity, dose response, H4 neuroglioma cells, luminescence (AID 1990); assay type: functional, cell-based
[19] = inhibitors of SNCA 5'UTR-driven reporter translation, confirmation, H4 neuroglioma cells, luminescence (AID 1988); assay type: functional, cell-based
[20] = cytotoxicity in HEK-293T cells, dose response, cytotoxicity control for BCR NF-kB inhibitor project, luminescence, B-cell screen hits (AID 489021); assay type: functional, cell-based;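 further: HEK-293T cells carrying an NF-kB luciferase reporter; cells exposed to compound for about 14 hours before viability readout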
[21] = Luminescence Cell-Based Dose Response HTS to Identify Inhibitors of 5'UTR Stem-Loop Driven Prion Protein mRNA Translation in H4 Neuroglioblastoma Cells. [Related pubchem assays: 1827 (Project Summary), 1813 (Primary HTS)]; assay type: functional
[22] = tested on: HEK293; assay: inhibitors of LMP1-driven NF-kB reporter, dose response, cell-based, HEK293, luciferase, cherry-pick (AID 588343); assay type: functional; conditions: Homo sapiens
[23] = tested on: BJ; assay: cytotoxicity toward Ras-transformed BJeLR fibroblasts, dose response, cell-based, alamar blue fluorescence, cherrypicked samples (AID 2631); assay type: functional; conditions: Homo sapiens;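 further: confirmatory dose-response assay in RAS-dependent BJ fibroblasts engineered with TERT, LT and ST, with cytotoxicity read by fluorescence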
[24] = tested on: INS1; assay: beta cell apoptosis inhibitors, cytokine rescue, dose response, luminescence, retest (AID 449756); assay type: functional, cell-based; conditions: Rattus norvegicus;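 further: cell death triggered by IL-1 beta plus TNF-alpha plus IFN-gamma mixture; protective hits raise ATP signal compared with cytokine alone wells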
[25] = NIH-3T3 fibroblast cytotoxicity, dose response, cytotoxicity control, cell-based, fluorescence, Alamar Blue, secondary assay (AID 2327); assay type: functional;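 further: NIH-3T3 mouse fibroblasts cultured with fluconazole at 8 µg/mL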
[26] = tested on: Streptococcus sp. 'group A'; assay: growth inhibition of control SK(-) GAS strain, dose response, counter-screen for streptokinase expression inhibitor project, luminescence, kanamycin, BacTiterGlo, confirmation (AID 1900); assay type: functional, organism-based
[27] = target: T2, Streptokinase A (Streptococcus pyogenes serotype M1, UniProt P10520); assay: S. pyogenes streptokinase expression inhibitors, potency, dose response, plasminogen activation absorbance, OD405 (AID 1914); assay type: functional, Streptococcus pyogenes M1 GAS;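 further: secreted streptokinase activity via plasminogen activation per viability signal from cell pellet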
T2 sequence (P10520 whole entry): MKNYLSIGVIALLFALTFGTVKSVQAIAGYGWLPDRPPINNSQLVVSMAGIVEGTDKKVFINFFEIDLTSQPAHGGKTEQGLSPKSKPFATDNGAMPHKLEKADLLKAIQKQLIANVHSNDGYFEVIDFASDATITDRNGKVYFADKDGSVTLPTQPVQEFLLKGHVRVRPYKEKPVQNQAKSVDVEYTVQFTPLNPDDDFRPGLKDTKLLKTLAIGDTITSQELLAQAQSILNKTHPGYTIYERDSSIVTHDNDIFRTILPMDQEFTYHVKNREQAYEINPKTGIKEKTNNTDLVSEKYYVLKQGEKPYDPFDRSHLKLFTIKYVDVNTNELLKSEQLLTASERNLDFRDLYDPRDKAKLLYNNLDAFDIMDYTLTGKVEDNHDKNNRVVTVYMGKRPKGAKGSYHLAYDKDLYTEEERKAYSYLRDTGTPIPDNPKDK

[28] = C. albicans growth with fluconazole, confirmation, fluorescence, retest (AID 2467); assay type: functional, cell-based
[29] = target: NS3 (Hepatitis C virus, UniProt A3EZJ3); assay: PubChem AID 2173; design: species or system Hepacivirus hominis
[30] = tested on: Streptococcus; assay: Group A Streptococcus viability loss, dose response, counter-screen for streptokinase expression inhibitor project, luminescence, BacTiterGlo (AID 1915); assay type: functional, organism-based;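 further: potency for reduction of bacterial viability or growth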
[31] = target: Heat shock protein HSP 90-alpha (Homo sapiens, UniProt P07900); assay type: functional, organism-based
[32] = target: T3, Leucine aminopeptidase (Plasmodium falciparum 3D7, UniProt Q8IL11); assay: P. falciparum M17LAP inhibitors, primary screen, biochemical, fluorogenic H-Leu-NHMec substrate, 1536-well (AID 1619); assay type: functional
T3 sequence (Q8IL11 whole entry): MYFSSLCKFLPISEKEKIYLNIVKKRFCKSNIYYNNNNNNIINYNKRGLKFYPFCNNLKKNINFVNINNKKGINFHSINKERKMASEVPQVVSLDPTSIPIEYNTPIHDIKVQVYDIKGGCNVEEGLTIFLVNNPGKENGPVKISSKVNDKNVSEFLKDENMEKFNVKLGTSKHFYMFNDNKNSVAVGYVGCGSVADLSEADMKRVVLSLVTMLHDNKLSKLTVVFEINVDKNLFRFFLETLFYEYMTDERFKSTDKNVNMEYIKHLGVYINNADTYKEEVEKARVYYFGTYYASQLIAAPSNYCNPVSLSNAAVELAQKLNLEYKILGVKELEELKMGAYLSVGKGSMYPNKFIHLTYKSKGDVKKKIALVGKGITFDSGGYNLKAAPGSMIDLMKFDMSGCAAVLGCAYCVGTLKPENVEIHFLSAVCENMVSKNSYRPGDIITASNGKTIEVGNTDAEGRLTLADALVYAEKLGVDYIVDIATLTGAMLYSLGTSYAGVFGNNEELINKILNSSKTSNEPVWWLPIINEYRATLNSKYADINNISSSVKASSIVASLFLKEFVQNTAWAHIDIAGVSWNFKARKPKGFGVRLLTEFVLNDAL

[33] = inhibitors of Vif binding to APOBEC3G peptide, primary screen, biochemical, TR-FRET, GST-Vif 1-94, biotin-A3G peptide, dose response retest (AID 1117319); assay type: functional;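 further: TR-FRET signal of purified GST-Vif binding a biotinylated A3G peptide; inhibitors lower the FRET signal by blocking Vif and A3G binding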
[34] = tested on: Escherichia coli; assay: microbe, parasite or virus in culture
[35] = target: T4, Aminopeptidase N (Plasmodium falciparum FcB1/Columbia, UniProt O96935); assay: P. falciparum M1AAP inhibitors, biochemical, fluorogenic H-Leu-NHMec substrate, 1536-well (AID 1445); design: species or system Plasmodium falciparum 3D7, 3D7
T4 sequence (O96935 whole entry): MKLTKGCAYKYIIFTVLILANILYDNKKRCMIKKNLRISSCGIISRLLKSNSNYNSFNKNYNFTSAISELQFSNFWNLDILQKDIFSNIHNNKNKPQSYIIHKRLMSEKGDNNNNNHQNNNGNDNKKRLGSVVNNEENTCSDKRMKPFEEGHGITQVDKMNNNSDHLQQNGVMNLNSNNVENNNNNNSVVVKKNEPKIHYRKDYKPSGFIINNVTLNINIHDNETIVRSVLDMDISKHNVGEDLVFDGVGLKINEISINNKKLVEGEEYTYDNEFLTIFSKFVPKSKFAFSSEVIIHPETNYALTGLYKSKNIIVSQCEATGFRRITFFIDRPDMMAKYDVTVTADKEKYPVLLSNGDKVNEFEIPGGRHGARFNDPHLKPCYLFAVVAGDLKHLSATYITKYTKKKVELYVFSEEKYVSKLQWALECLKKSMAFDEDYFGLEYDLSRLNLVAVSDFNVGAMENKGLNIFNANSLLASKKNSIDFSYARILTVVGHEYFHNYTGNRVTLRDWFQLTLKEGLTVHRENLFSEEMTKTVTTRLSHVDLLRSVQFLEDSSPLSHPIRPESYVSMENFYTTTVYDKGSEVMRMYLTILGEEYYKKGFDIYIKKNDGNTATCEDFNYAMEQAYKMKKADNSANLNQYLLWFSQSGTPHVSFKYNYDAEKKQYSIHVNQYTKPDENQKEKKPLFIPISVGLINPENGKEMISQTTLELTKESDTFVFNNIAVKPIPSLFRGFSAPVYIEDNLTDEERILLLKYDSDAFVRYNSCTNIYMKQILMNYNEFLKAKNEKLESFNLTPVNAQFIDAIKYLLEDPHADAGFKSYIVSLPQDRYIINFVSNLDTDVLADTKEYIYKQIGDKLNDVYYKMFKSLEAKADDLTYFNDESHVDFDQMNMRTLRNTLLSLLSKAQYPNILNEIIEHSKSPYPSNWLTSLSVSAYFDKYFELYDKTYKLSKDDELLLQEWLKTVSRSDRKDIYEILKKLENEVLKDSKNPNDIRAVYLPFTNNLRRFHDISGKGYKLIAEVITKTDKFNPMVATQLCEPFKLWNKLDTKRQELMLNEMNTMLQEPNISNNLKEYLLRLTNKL

T1 sequence (P08659 whole entry): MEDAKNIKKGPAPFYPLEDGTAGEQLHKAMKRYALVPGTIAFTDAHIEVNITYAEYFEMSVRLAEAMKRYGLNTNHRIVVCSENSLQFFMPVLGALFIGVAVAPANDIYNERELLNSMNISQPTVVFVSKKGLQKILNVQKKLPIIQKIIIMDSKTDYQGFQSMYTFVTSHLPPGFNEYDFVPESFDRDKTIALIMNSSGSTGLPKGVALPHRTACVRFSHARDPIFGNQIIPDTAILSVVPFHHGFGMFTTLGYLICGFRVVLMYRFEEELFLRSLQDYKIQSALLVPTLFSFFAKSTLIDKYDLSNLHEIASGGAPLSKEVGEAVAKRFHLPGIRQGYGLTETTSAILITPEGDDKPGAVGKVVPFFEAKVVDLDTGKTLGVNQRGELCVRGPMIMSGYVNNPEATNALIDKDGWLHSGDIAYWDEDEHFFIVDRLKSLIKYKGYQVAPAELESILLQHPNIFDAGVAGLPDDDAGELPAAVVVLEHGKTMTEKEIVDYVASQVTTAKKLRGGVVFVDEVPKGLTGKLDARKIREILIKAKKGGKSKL
NS3, sequence (A3EZJ3 whole entry): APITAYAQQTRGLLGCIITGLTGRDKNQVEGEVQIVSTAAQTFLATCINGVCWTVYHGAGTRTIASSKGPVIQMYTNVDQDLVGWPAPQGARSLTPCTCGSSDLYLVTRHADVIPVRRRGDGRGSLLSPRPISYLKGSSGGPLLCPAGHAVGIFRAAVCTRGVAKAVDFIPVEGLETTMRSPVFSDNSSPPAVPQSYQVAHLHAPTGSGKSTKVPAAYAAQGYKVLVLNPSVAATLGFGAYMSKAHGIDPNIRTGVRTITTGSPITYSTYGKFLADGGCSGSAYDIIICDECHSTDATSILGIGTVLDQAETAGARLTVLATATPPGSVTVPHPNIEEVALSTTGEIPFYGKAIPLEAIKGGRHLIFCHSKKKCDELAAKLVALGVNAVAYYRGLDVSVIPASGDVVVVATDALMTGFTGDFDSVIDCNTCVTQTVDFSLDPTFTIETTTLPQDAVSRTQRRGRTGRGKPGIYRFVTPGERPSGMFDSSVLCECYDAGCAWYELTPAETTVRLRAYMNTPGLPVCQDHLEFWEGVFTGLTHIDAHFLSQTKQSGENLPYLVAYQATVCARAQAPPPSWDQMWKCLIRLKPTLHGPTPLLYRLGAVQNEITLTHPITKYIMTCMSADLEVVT
Voltage-dependent T-type calcium channel subunit alpha-1H, sequence (O95180 whole entry): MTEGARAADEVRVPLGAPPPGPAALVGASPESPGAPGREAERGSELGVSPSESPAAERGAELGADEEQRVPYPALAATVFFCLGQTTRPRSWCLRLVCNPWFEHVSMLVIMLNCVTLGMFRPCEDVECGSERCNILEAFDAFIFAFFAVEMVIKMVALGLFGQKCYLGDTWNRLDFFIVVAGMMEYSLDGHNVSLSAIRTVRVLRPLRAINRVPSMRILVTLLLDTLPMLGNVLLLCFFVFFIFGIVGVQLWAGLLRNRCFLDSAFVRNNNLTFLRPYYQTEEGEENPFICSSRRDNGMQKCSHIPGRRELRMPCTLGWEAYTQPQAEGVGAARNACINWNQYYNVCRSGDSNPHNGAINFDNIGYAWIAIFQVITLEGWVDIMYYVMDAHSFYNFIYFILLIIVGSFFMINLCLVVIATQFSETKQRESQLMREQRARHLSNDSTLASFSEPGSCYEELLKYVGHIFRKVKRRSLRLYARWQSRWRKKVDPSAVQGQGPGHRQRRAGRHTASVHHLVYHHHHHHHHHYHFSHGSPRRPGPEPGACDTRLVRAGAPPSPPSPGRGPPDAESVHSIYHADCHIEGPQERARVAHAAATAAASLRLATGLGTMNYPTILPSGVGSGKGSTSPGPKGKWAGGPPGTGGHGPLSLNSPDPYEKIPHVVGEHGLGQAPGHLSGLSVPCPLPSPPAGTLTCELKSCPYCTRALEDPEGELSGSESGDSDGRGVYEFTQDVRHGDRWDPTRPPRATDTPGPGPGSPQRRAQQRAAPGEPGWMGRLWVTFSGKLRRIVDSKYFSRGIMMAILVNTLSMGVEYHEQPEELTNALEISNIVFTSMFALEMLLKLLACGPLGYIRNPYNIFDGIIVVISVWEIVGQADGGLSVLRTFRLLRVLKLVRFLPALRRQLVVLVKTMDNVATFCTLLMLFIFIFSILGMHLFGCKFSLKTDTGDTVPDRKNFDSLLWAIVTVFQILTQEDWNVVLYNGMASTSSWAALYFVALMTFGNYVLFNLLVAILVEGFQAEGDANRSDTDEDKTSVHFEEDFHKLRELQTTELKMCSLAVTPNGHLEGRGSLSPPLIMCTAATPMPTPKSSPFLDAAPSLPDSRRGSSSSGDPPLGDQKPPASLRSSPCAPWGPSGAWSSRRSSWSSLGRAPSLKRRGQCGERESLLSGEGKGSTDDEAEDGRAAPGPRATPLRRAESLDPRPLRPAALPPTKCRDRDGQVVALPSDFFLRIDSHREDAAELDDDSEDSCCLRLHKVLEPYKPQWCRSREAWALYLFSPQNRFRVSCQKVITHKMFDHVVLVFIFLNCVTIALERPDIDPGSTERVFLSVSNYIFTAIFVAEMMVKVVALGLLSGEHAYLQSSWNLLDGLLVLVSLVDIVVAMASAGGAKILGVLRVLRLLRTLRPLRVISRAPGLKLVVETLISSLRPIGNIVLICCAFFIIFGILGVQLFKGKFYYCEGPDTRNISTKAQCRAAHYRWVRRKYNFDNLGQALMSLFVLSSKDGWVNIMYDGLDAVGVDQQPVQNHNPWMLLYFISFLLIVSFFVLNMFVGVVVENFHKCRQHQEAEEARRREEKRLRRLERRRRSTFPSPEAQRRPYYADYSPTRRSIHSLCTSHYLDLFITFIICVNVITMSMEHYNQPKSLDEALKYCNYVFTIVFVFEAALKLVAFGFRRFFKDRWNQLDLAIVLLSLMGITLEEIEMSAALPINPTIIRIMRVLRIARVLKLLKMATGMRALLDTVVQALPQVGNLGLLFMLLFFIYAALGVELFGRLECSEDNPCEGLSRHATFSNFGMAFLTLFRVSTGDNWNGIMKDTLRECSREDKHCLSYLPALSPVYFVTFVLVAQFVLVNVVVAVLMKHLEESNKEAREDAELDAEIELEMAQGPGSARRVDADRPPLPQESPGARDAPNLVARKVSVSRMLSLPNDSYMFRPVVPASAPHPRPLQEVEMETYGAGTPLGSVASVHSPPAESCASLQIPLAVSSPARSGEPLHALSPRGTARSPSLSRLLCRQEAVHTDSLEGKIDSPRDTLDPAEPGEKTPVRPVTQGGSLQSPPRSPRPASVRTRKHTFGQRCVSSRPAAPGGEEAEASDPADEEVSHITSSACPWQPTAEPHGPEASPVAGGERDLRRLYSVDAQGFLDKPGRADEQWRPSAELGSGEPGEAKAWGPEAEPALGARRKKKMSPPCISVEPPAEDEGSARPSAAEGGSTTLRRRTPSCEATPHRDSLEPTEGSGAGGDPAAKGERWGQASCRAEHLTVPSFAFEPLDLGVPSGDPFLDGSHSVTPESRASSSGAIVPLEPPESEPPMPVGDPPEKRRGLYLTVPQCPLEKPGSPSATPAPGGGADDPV

## Cc1ccc(-c2nc(-c3ccccn3)no2)cc1
[1]
  EC50: 7.04 µM (active)
[2]
  EC50: 810 nM (active)
[3]
  EC50: 5.39 µM (active)
[4]
  EC50: 593 nM (active)
[5]
  EC50: 2.52 µM (active)
[6]
  EC50: > 50 µM (not active)
[7]
  EC50: 17.4 µM (active)
[8]
  EC50: 5.41 µM (active)
[9]
  IC50: > 80 µM (inactive)
[10]
  AC50: 1.96 µM (active)
[11]
  AC50: 8.99 µM (active)

## COc1cccc(C(=O)/C=C/Nc2cccc(O)c2)c1
[2]
  EC50: 560 nM (active)
[4]
  EC50: 1380 nM (active)
[5]
  EC50: 2.07 µM (active)
[6]
  EC50: > 50 µM (not active)

## Cc1ccc(NC(=O)C(Cc2ccccc2)N2C(=O)C3C4CCC(C4)C3C2=O)cc1Cl (stereo not drawn)
[12]
  EC50: 871 nM (active)
[13]
  EC50: > 60 µM (not active)
[14]
  EC50: 5.73 µM (active)

## C/C(=N/NC(=O)c1ccc(Cl)s1)c1ccc(NC(=O)COc2ccc(Cl)cc2)cc1
[15]
  CC50: > 40 µM (active)
[16]
  EC50: 24 µM (active)
[17]
  EC50: 22.2 µM (active)

## Cc1nc2cc(-c3cccc(F)c3)nn2c(C)c1CCC(=O)NC(C)CCc1ccco1 (stereo not drawn)
[18]
  EC50: 2.36 µM (active)
[2]
  EC50: 270 nM (active)
[19]
  EC50: 5.87 µM (active)
[6]
  EC50: > 50 µM (not active)
[20]
  IC50: > 80 µM (inactive)

## CCCCC/N=C\c1c(C)nn(-c2nc3ccccc3s2)c1O
[18]
  EC50: 9.33 µM (inconclusive)
[1]
  EC50: 1.26 µM (active)
[2]
  EC50: 1930 nM (active)
[21]
  EC50: 6.84 µM (active)
[19]
  EC50: 7.25 µM (active)
[3]
  EC50: 2.32 µM (active)
[6]
  EC50: > 50 µM (not active)
[7]
  EC50: 4.84 µM (active)
[8]
  EC50: 2.01 µM (active)
[22]
  AC50: 3.89 µM (active)
[23]
  EC50: > 133 µM (inactive)
[24]
  AC50: 2.69 µM (active)

## ClCc1nnc(-c2ccccc2)o1
[20]
  IC50: > 80 µM (inactive)

## Cc1ccc(/C=C/C(=O)c2ccccc(=O)c2O)c(C)c1
[25]
  EC50: > 160 µM (inactive)
[26]
  EC50: 5.22 µM (active)
[27]
  EC50: > 150 µM (not active)
[28]
  EC50: 1.46 µM (active)
[29]
  IC50: 2.9 µM (active)
[30]
  EC50: 7.6 µM (active)
[31]
  AC50: 2.05 µM (active)

## O=C1OC(c2ccco2)=N/C1=C\c1ccc(-c2cccc(C(F)(F)F)c2)o1
[29]
  IC50: 22.1 µM (not active)

## Cc1cccn2c(=O)c3cc(C(=O)NC4CCCCC4)c(=N)n(CCN4CCOCC4)c3nc12
[20]
  IC50: > 80 µM (inactive)

## CCc1ccc(-c2cc(C(=O)Nc3ccc(S(=O)(=O)NC(C)=O)cc3)c3ccccc3n2)cc1
[32]
  IC50: 7.8 µM (active)
[33]
  IC50: > 100 µM (active)
[34]
  AC50: 38.6 µM (active)

## COc1ccc(-c2csc(Nc3ncccc3C)n2)cc1OC
[15]
  CC50: > 40 µM (active)

## COc1cc(/C=C/C(=O)OCC(=O)Nc2cc(C)c(C)cc2[N+](=O)[O-])ccc1O
[15]
  CC50: > 40 µM (active)

## O=C1N=C(N2CCCC2)S/C1=C\c1cccc(Br)c1
[15]
  CC50: > 40 µM (active)

## O=C(NCc1ccccc1)c1ccc2c(=O)[nH]c3c(C(=O)NCC4CCCO4)sc(=S)n3c2c1 (stereo not drawn)
[32]
  IC50: 8.61 µM (active)
[35]
  IC50: 29.2 µM (active)

## Cc1ccc(-c2noc(CSc3nnc(Cc4ccccc4)n3-c3ccc(Cl)cc3)n2)cc1
[14]
  EC50: 4.98 µM (active)

## O=C(Nc1nc2nc(-c3ccccc3)cc(-c3ccccc3)n2n1)c1ccco1
[20]
  IC50: > 80 µM (inactive)
